pEC50: −log10 of the molar value. Structures can show the parent of a compound that is named as a salt.
Target: human NAMPT (Homo sapiens (Human), UniProt P43490)
Test: NMN fluorescence biochemical assay (human recombinant NAMPT enzyme assay)
Method in brief: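 Activation of recombinant human NAMPT (6 nM) was tested with 2.5 mM ATP, 20 μM PRPP and 150 μM nicotinamide in 50 mM HEPES pH 7.2 for 60 min at ambient temperature. NMN was derivatized with acetophenone/KOH/formic acid and read by fluorescence (355/460 nm) after 40 min.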

Sequence of human NAMPT (P43490 whole entry): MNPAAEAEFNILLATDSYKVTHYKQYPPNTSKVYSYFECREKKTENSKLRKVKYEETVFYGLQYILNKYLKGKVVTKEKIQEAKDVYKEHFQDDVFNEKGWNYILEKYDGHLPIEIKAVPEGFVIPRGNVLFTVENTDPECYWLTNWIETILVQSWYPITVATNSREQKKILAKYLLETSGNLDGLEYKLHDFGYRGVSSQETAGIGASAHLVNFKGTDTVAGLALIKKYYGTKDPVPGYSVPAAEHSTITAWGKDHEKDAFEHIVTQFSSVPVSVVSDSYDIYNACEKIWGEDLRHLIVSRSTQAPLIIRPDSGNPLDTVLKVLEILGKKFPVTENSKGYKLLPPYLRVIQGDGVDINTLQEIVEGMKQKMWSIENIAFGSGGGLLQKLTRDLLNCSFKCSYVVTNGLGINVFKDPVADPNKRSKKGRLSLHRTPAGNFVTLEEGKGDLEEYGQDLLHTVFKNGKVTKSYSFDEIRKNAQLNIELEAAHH

| SMILES | AC1.4 Human [µM] | pEC50 |
| --- | --- | --- |
| Cc1ncoc1C(=O)NCc1ccc(NC(=O)OCc2ccc(Cl)cc2)cc1 [Compound 209, (4-chlorophenyl)methyl N-(4-{[(4-methyl-1,3-oxazol-5-yl)formamido]methyl}phenyl)carbamate] | 1.88 | 4.67 |
| C[C@H](NC(=O)c1ccnn1C1CCC1)c1ccc(NC(=O)OCc2ccc(Cl)cc2)cc1 [Compound 210, (4-chlorophenyl)methyl N-{4-[(1S)-1-[(2-cyclobutylpyrazol-3-yl)formamido]ethyl]phenyl}carbamate] | 1.91 | 5.42 |
| O=C(Nc1ccc(CC(=O)N2CCC(F)CC2)cc1)OCc1ccc(Cl)cc1 [Compound 212, (4-chlorophenyl)methyl N-{4-[2-(4-fluoropiperidin-1-yl)-2-oxoethyl]phenyl}carbamate] | 1.93 | 4.99 |
| COc1nc(C)ccc1C(=O)N[C@@H](C)c1ccc(NC(=O)OCc2ccc(Cl)cc2)cc1 [Compound 213, (4-chlorophenyl)methyl N-{4-[(1S)-1-[(2-methoxy-6-methylpyridin-3-yl)formamido]ethyl]phenyl}carbamate] | 1.95 | 5.53 |
| Cc1ccc(C(=O)NCc2ccc(NC(=O)OCc3ccc(Cl)cc3)cc2)nc1 [Compound 214, (4-chlorophenyl)methyl N-(4-{[(5-methylpyridin-2-yl)formamido]methyl}phenyl)carbamate] | 1.96 | 5.02 |
| COc1ccc(COC(=O)Nc2ccc(COC3CCN(C(C)=O)CC3)cc2)cc1 [Compound 217, 4-methoxybenzyl (4-(((1-acetylpiperidin-4-yl)oxy)methyl)phenyl)carbamate] | 1.98 | 4.61 |
| O=C(Nc1ccc(Cc2ccncc2)cc1)OCc1ccns1 [Compound 219, isothiazol-5-ylmethyl (4-(pyridin-4-ylmethyl)phenyl)carbamate] | 2.03 | 4.69 |
| O=C(Nc1ccc(CC(=O)N2CCOCC2)cc1)OCc1ccc(Cl)cc1 [Compound 220, (4-chlorophenyl)methyl N-{4-[2-(morpholin-4-yl)-2-oxoethyl]phenyl}carbamate] | 2.03 | 4.49 |
| O=C(Cc1ccc(NC(=O)OCc2ccc(Cl)cc2)cc1)N[C@H]1CC[C@H](OC(F)F)CC1 [Compound 221, (4-chlorophenyl)methyl N-[4-({[(1r,4r)-4-(difluoromethoxy)cyclohexyl]carbamoyl}methyl)phenyl]carbamate] | 2.04 | 5.67 |
| CS(=O)(=O)C1CN(Cc2ccc(NC(=O)OCc3ccc(Cl)cc3)cc2)C1 [Compound 222, (4-chlorophenyl)methyl N-{4-[(3-methanesulfonylazetidin-1-yl)methyl]phenyl}carbamate] | 2.05 | 4.56 |
| C[C@H](NC(=O)Cc1ncco1)c1ccc(NC(=O)OCc2ccc(Cl)cc2)cc1 [Compound 224, 4-chlorobenzyl (S)-(4-(1-(2-(oxazol-2-yl)acetamido)ethyl)phenyl)carbamate] | 2.08 | 4.99 |
| O=C(Nc1ccc(CNC(=O)c2cnccn2)cc1)OCc1ccc(Cl)cc1 [Compound 226, (4-chlorophenyl)methyl N-{4-[(pyrazin-2-ylformamido)methyl]phenyl}carbamate] | 2.09 | 5.21 |
| Cc1ccc(C(=O)NCc2ccc(NC(=O)OCc3ccc(F)cc3)cc2)cn1 [Compound 227, 4-fluorobenzyl (4-((6-methylnicotinamido)methyl)phenyl)carbamate] | 2.11 | 5.46 |
| CN1CC[C@H](NCc2ccc(NC(=O)OCc3ccc(Cl)cc3)cc2)C1=O [Compound 228, 4-chlorobenzyl (S)-(4-(((1-methyl-2-oxopyrrolidin-3-yl)amino)methyl)phenyl)carbamate] | 2.11 | 4.67 |
| CO[C@@H]1CCCN(C(=O)Cc2ccc(NC(=O)OCc3ccc(Cl)cc3)cc2)C1 [Compound 229, (4-chlorophenyl)methyl N-(4-{2-[(3R)-3-methoxypiperidin-1-yl]-2-oxoethyl}phenyl)carbamate] | 2.13 | 4.89 |
| O=C(Nc1ccc(CC2CCNCC2)cc1)OCc1ccc(Cl)cc1 [Compound 231, 4-chlorobenzyl (4-(piperidin-4-ylmethyl)phenyl)carbamate hydrochloride] | 2.13 | 4.47 |
| O=C(Nc1ccc(CC(=O)N2CCC[C@@H](O)C2)cc1)OCc1ccc(Cl)cc1 [Compound 237, (4-chlorophenyl)methyl N-(4-{2-[(3R)-3-hydroxypiperidin-1-yl]-2-oxoethyl}phenyl)carbamate] | 2.25 | 4.49 |
| O=C(Nc1ccc(CNC(=O)c2ccnn2C2CCOCC2)cc1)OCc1ccc(Cl)cc1 [Compound 238, (4-chlorophenyl)methyl N-[4-({[2-(oxan-4-yl)pyrazol-3-yl]formamido}methyl)phenyl]carbamate] | 2.29 | 4.97 |
| CC1CCN(C(=O)Cc2ccc(NC(=O)OCc3ccc(Cl)cc3)cc2)CC1 [Compound 240, (4-chlorophenyl)methyl N-{4-[2-(4-methylpiperidin-1-yl)-2-oxoethyl]phenyl}carbamate] | 2.33 | 5.56 |
| O=C(Nc1ccc(CN2CCOC2=O)cc1)OCc1ccc(Cl)cc1 [Compound 242, (4-chlorophenyl)methyl N-{4-[(2-oxo-1,3-oxazolidin-3-yl)methyl]phenyl}carbamate] | 2.38 | 4.70 |
| Cc1coc(C(=O)N[C@@H](C)c2ccc(NC(=O)OCc3ccc(Cl)cc3)cc2)n1 [Compound 243, 4-chlorobenzyl (S)-(4-(1-(4-methyloxazole-2-carboxamido)ethyl)phenyl)carbamate] | 2.38 | 4.58 |
| C[C@H]1CCN(C(=O)Cc2ccc(NC(=O)OCc3ccc(Cl)cc3)cc2)C1 [Compound 244, (4-chlorophenyl)methyl N-(4-{2-[(3S)-3-methylpyrrolidin-1-yl]-2-oxoethyl}phenyl)carbamate] | 2.39 | 5.25 |

More lines, in order of rising pEC50, values ahead:

| AC1.4 Human [µM] | pEC50 | SMILES |
| --- | --- | --- |
| 2.25 | 4.30 | O=C1CN(C2CCC2)[C@@H](c2ccc(NC(=O)OCc3ccc(Cl)cc3)cc2)CN1 [Compound 236, 4-chlorobenzyl (S)-(4-(1-cyclobutyl-5-oxopiperazin-2-yl)phenyl)carbamate] |
| 2.22 | 4.35 | O=C1CN(C(=O)Cc2ccc(NC(=O)OCc3ccc(Cl)cc3)cc2)CCN1 [Compound 235, (4-chlorophenyl)methyl N-{4-[2-oxo-2-(3-oxopiperazin-1-yl)ethyl]phenyl}carbamate] |
| 2.05 | 4.75 | O=C(Nc1ccc(CN2CCN(C3COC3)CC2)cc1)OCc1ccc(Cl)cc1 [Compound 223, (4-chlorophenyl)methyl N-(4-{[4-(oxetan-3-yl)piperazin-1-yl]methyl}phenyl)carbamate] |
| 2.13 | 4.82 | C[C@H](NC(=O)[C@H]1C[C@@H]2[C@H](C1)C2(F)F)c1ccc(NC(=O)OCc2cnco2)cc1 [Compound 230, 1,3-oxazol-5-ylmethyl N-{4-[(1S)-1-{[(1R,3r,5S)-6,6-difluorobicyclo[3.1.0]hexan-3-yl]formamido}ethyl]phenyl}carbamate] |
| 2.37 | 4.93 | Cc1ocnc1C(=O)N[C@@H](C)c1ccc(NC(=O)OCc2ccc(Cl)cc2)cc1 [Compound 241, (4-chlorophenyl)methyl N-{4-[(1S)-1-[(5-methyl-1,3-oxazol-4-yl)formamido]ethyl]phenyl}carbamate] |
| 1.91 | 4.98 | Cc1nc(C)c(C(=O)NCc2ccc(NC(=O)OCc3ccc(Cl)cc3)cc2)o1 [Compound 211, (4-chlorophenyl)methyl N-(4-{[(2,4-dimethyl-1,3-oxazol-5-yl)formamido]methyl}phenyl)carbamate] |
| 2.08 | 5.04 | Cc1cc(C(=O)NCc2ccc(NC(=O)OCc3ccc(Cl)cc3)cc2)n(C)n1 [Compound 225, (4-chlorophenyl)methyl N-(4-{[(2,5-dimethylpyrazol-3-yl)formamido]methyl}phenyl)carbamate] |
| 1.99 | 5.04 | Cc1ncc(C(=O)N[C@@H](C)c2ccc(NC(=O)OCc3ccc(Cl)cc3)cc2)o1 [Compound 218, (4-chlorophenyl)methyl N-{4-[(1S)-1-[(2-methyl-1,3-oxazol-5-yl)formamido]ethyl]phenyl}carbamate] |
| 1.96 | 5.08 | CC1CCCN1C(=O)Cc1ccc(NC(=O)OCc2ccc(Cl)cc2)cc1 (stereo not shown) [Compound 215, (4-chlorophenyl)methyl N-{4-[2-(2-methylpyrrolidin-1-yl)-2-oxoethyl]phenyl}carbamate] |
| 2.18 | 5.11 | O=C(Nc1ccc(Cc2ccccn2)cc1)OCc1ccc(Cl)cc1 [Compound 233, 4-chlorobenzyl (4-(pyridin-2-ylmethyl)phenyl)carbamate] |
| 1.98 | 5.24 | O=C(Nc1ccc(Cc2ccncc2)cc1)OCc1ccc(Cl)cc1 [Compound 216, 4-chlorobenzyl (4-(pyridin-4-ylmethyl)phenyl)carbamate] |
| 2.19 | 5.47 | CC(C)c1ccc(C(=O)NCc2ccc(NC(=O)OCc3ccc(Cl)cc3)cc2)cn1 [Compound 234, (4-chlorophenyl)methyl N-(4-{[(6-isopropylpyridin-3-yl)formamido]methyl}phenyl)carbamate] |
| 2.32 | 5.72 | O=C(Nc1ccc(CNC(=O)c2ccc(C(F)(F)F)nc2)cc1)OCc1ccc(Cl)cc1 [Compound 239, (4-chlorophenyl)methyl N-[4-({[6-(trifluoromethyl)pyridin-3-yl]formamido}methyl)phenyl]carbamate] |
